Test [1] relates to drug-resistant subcutaneous tumors. Kind of test: subcutaneous drug-resistant tumor model in nude mice. To be noted: in vivo and in vitro. The method, then:
(§1) The present invention further provides an application of a gold (I) Gefitinib derivative, mainly providing the study of the effect of Embodiment 8 (L1Au2 for short). […] L1Au2 is mainly used to treat lung cancer resistant to first- and second-generation EGFR-TKI. In vitro experiments on L1Au2 were conducted against Gefitinib-sensitive and Gefitinib-resistant lung cancer. […] The cell lines used in the experiment are internationally universal lung cancer tumor cell lines: Gefitinib-sensitive lung cancer cell line PC9, and Gefitinib-resistant cell lines PC9GR and H1975. […] See FIG. 3 for the effect diagram of a specific product.

Test [2] relates to lung cancer cells. In words: Annexin V-FITC/PI double staining apoptosis assay. Format: cell-based. The method, then: as §1
Test [3] relates to lung cancer cell lines PC9, PC9GR and H1975. In words: plate cloning (colony formation) experiment. Format: cell-based. The method, then:
as §1

Test [4] has the same test system. In words: CCK-8 proliferation / cell death experiment. In kind it is cell-based. The method, then: as §1
The subject of a further test is EGFR-related pathway. In words: EGFR-related pathway activation. In kind it is cell-based. Here is the method: as §1
The next test concerns the target T1, GPX4 protein (Homo sapiens, UniProt P36969).
T1 construct: endogenous in cells; host or cells: Gefitinib-resistant lung cancer cells (PC9GR / H1975; not specified which)
T1 sequence (P36969 1-197): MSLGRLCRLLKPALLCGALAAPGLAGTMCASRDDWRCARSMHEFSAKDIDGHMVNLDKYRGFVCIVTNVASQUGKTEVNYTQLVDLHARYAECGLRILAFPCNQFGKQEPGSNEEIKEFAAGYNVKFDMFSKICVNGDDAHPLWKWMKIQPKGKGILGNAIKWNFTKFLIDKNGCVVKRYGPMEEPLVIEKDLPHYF
Kind of test: GPX4 protein degradation. In kind it is cell-based. The settings on record: by promoting autophagy and inducing GPX4 ubiquitination. Here is the method: as §1

Another test deals with thioredoxin reductase. Kind of test: thioredoxin reductase activity. In kind it is biochemical. The method, then: as §1
Test [5] deals with Gefitinib-resistant lung cancer cells. In words: mitochondrial damage, oxidative stress and ferroptosis in resistant cells. In kind it is cell-based. The method, then:
as §1

Test [6] has as its system lung cancer cells. In words: Transwell migration experiment. In kind it is cell-based. The method, then: as §1

In the case of `COc1cc2ncnc(Nc3ccc(F)c(Cl)c3)c2cc1OCCCC#[C][Au][PH]12CN3CN(CN(C3)C1)C2` [Embodiment 8], in [1], the “performance compared with Gefitinib against drug-resistant tumors” value is “performs better than Gefitinib”. Besides, the “apoptosis of lung cancer cells (FIG. 2D)” value in the test with lung cancer cells [2] is listed as “significantly promoted the apoptosis”. Further, in [3], the “colony formation ability of lung cancer cells (FIG. 2B)” value is on record as “significantly inhibits the colony formation ability”. Besides, in [4] (CCK8), the “lung cancer cell death over time (FIG. 2A)” value is listed as “induces lung cancer cell death in a time-dependent manner”. The inhibition of proliferation result in [4] (CCK-8 and plate cloning, PC9, PC9GR, H1975) was “obvious effect on inhibiting proliferation”. For the same molecule, in the test on EGFR-related pathway, the EGFR-related pathway activation result is listed as “inhibits EGFR-related pathway activation”. Further, the GPX4 protein level result at GPX4 protein was “degrades GPX4 protein”. Besides, in the test on thioredoxin reductase, the thioredoxin reductase activity result is reported as “inhibits thioredoxin reductase activity”. In test [5], the intracellular mitochondrial damage result is “induces intracellular mitochondrial damage” and the “intracellular oxidative stress level” value is listed as “severely induces elevation of the intracellular oxidative stress level”. The ferroptosis entry in [5] (Gefitinib-resistant lung cancer cells) is listed as “resulting in ferroptosis”. In the test with lung cancer cells [6], the “migration ability of lung cancer cells (FIG. 2C)” value is recorded as “significantly inhibited the migration ability”.

These data come from patent US20250154179A1, “GOLD (I) GEFITINIB DERIVATIVES AND PREPARATION METHOD AND APPLICATION THEREOF” (TONGJI HOSPITAL, TONGJI MEDICAL COLLEGE, HUAZHONG …, priority 2023, published 2025).
